Measured values taken from patent publication US11840686B2, “Modulation of prekallikrein (PKK) expression” (Ionis Pharmaceuticals, Inc., priority 2013, dated 2023).
Strand notation (5' to 3'): a small letter for the sugar, then the base; units joined by * are phosphorothioate-linked, units joined directly phosphodiester-linked; [ ] holds rarer units or linkages, { } end groups; capitals alone tell only the bases. e = 2'-O-(2-methoxyethyl) (MOE); [5mC] = 5-methylcytosine; d = 2'-deoxy (DNA)

Legend:
PKK protein = assay: Plasma PKK protein levels in human KLKB1 transgenic mice (Example 7); format: in vivo; details: plasma, twice a week for 3 weeks
Description: (§1) Transgenic mice containing a 37,390 base pair fragment of the human KLKB1 gene sequence (chromosome 4: position 187148672-187179625, accession no: NC_000004.11) were treated with ISIS antisense oligonucleotides selected from studies described above, which were evaluated for efficacy in this model.
(§2) Groups of transgenic mice were injected subcutaneously twice a week for 3 weeks with 2.5 mg/kg/week, 5.0 mg/kg/week, 10 mg/kg/week or 20 mg/kg/week of ISIS 546232, ISIS 546251, ISIS 546254, ISIS 546343, ISIS 546828, ISIS 547455, ISIS 547457, ISIS 547927, and ISIS 548048. One group of transgenic mice was injected subcutaneously twice a week for 3 weeks with PBS. Mice were euthanized 48 hours after the last dose, and organs and plasma were harvested for further analysis.
Plasma PKK protein levels were evaluated in all groups. Results are presented as percent inhibition of PKK protein, relative to PBS control.

human PKK mRNA [1] = assay: Antisense inhibition of human PKK mRNA in HepaRG cells, 5,000 nM (Example 2); format: cell-based; details: HepaRG cells, 20,000 cells per well, electroporation with 5,000 nM antisense oligonucleotide, approx. 24 hours, PKK mRNA by RT-PCR (RTS3454), relative to untreated control cells
Method in brief: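 Chimeric MOE gapmers with full phosphorothioate backbones were tested once at 5,000 nM in electroporated HepaRG cells. After about 24 hours, quantitative PCR measured PKK mRNA relative to untreated control cells.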

PKK mRNA = PKK mRNA in cynomolgus monkey liver (Example 8); format: in vivo; details: 40 mg/kg s.c., loading then weekly to week 13; day 87 or 88, 48 h after final dose
Description: Cynomolgus monkeys were treated with ISIS antisense oligonucleotides selected from studies described above. Antisense oligonucleotide efficacy and tolerability were evaluated. The human antisense oligonucleotides tested are cross-reactive with the rhesus genomic sequence (GENBANK Accession No. NW_001118167.1 truncated from nucleotides 2358000 to 2391000 and designated herein as SEQ ID NO: 18).
On day 87 or 88, 48 hours after the final dose, RNA was extracted from liver tissue for real-time PCR analysis of PKK using primer probe set RTS3455 (forward sequence […], designated herein as SEQ ID NO: 23; reverse sequence […], designated herein as SEQ ID NO: 24; probe sequence […], designated herein as SEQ ID NO: 25). The results were normalized to the housekeeping gene, Cyclophilin. Results are presented as percent inhibition of PKK mRNA, relative to PBS control.

human PKK mRNA [2] = assay: Human PKK mRNA in liver of human KLKB1 transgenic mice (Example 7); format: in vivo; details: twice a week for 3 weeks
Description: as §1, §2
To evaluate the effect of ISIS oligonucleotides on target reduction, RNA was extracted from liver tissue for real-time PCR analysis of human PKK. Results are presented as percent inhibition of PKK mRNA, relative to PBS control.

human PKK mRNA [3] = assay: Dose-dependent antisense inhibition of human PKK in HepaRG cells, 0.12-10.00 uM (Example 4); format: cell-based; details: electroporation, ~16 h
Description: Cells were plated at a density of 20,000 cells per well and transfected using electroporation with 0.12 μM, 0.37 μM, 1.11 μM, 3.33 μM, and 10.00 μM concentrations of antisense oligonucleotide. After a treatment period of approximately 16 hours, RNA was isolated from the cells and PKK mRNA levels were measured by quantitative real-time PCR. Human PKK primer probe set RTS3454 was used to measure mRNA levels. PKK mRNA levels were adjusted according to total RNA content, as measured by RIBOGREEN®. The antisense oligonucleotides were tested in a series of experiments that had similar culture conditions. Results are presented as percent inhibition of PKK, relative to untreated control cells.
The half maximal inhibitory concentration (IC50) of each oligonucleotide is also presented.

human PKK mRNA [4] = assay: Antisense inhibition of human PKK mRNA in HepaRG cells, 3,000 nM (Example 1); format: cell-based; details: relative to untreated control cells
Method in brief: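 Values give percent PKK mRNA reduction relative to untreated controls, normalised to RIBOGREEN total RNA. mRNA was quantified by real-time PCR (RTS3454) about 24 h after electroporation. Each 20-mer MOE gapmer was delivered at 3,000 nM into 20,000 HepaRG cells per well.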

[5] = Table 1, PKK mRNA, HepaRG cells, 3,000 nM, electroporation, ~24 h
[6] = Table 4, HepaRG cells, electroporation with 3,000 nM antisense oligonucleotide, approx. 24 hours, PKK mRNA by RT-PCR (RTS3454)

Substance | percent inhibition of PKK at 0.12 μM (human PKK mRNA [3]; Table 32, 0.12 μM) [%] | percent inhibition of PKK at 0.37 μM (human PKK mRNA [3]; Table 32, 0.37 μM) [%] | percent inhibition of PKK at 1.11 μM (human PKK mRNA [3]; Table 32, 1.11 μM) [%] | percent inhibition of PKK at 3.33 μM (human PKK mRNA [3]; Table 32, 3.33 μM) [%] | percent inhibition of PKK at 10.00 μM (human PKK mRNA [3]; Table 32, 10.00 μM) [%] | IC50 (human PKK mRNA [3]; Table 32, PKK mRNA) [nM] | % inhibition (human PKK mRNA [4]; [5]) [%] | percent inhibition of PKK at 0.12 μM (human PKK mRNA [3]; Table 33, 0.12 μM) [%] | percent inhibition of PKK at 0.37 μM (human PKK mRNA [3]; Table 33, 0.37 μM) [%] | percent inhibition of PKK at 1.11 μM (human PKK mRNA [3]; Table 33, 1.11 μM) [%] | percent inhibition of PKK at 3.33 μM (human PKK mRNA [3]; Table 33, 3.33 μM) [%] | percent inhibition of PKK at 10.00 μM (human PKK mRNA [3]; Table 33, 10.00 μM) [%] | IC50 (human PKK mRNA [3]; Table 33, PKK mRNA) [nM] | % inhibition (human PKK mRNA [4]; [6]) [%] | further results
547455 (antisense eA*eT*eA*eT*e[5mC]*dA*dT*dG*dA*dT*dT*d[5mC]*d[5mC]*d[5mC]*dT*eT*e[5mC]*eT*eG*eA) [compound 547455] |  |  |  |  |  |  |  |  |  |  |  |  |  |  | % inhibition of PKK protein levels in the transgenic mice relative to the PBS control (PKK protein; 2.5 mg/kg/week sc): 0%; % inhibition of PKK protein levels in the transgenic mice relative to the PBS control (PKK protein; 5 mg/kg/week sc): 0%; % inhibition of PKK protein levels in the transgenic mice relative to the PBS control (PKK protein; 10 mg/kg/week sc): 32%; % inhibition of PKK protein levels in the transgenic mice relative to the PBS control (PKK protein; 20 mg/kg/week sc): 78%; % inhibition (human PKK mRNA [1]; Table 9 experiment): 88%; % inhibition (human PKK mRNA [1]; Table 10 experiment): 66%; % inhibition of PKK mRNA in the cynomolgus monkey liver relative to the PBS control (PKK mRNA): 90%; % inhibition of PKK mRNA in the transgenic mice liver relative to the PBS control (human PKK mRNA [2]; 2.5 mg/kg/week sc): 0%; % inhibition of PKK mRNA in the transgenic mice liver relative to the PBS control (human PKK mRNA [2]; 5 mg/kg/week sc): 69%; % inhibition of PKK mRNA in the transgenic mice liver relative to the PBS control (human PKK mRNA [2]; 10 mg/kg/week sc): 45%; % inhibition of PKK mRNA in the transgenic mice liver relative to the PBS control (human PKK mRNA [2]; 20 mg/kg/week sc): 62%
530988 (eT*e[5mC]*e[5mC]*eA*eA*dA*dG*dT*d[5mC]*dA*dA*d[5mC]*dT*d[5mC]*d[5mC]*e[5mC]*eG*eG*eG*eT; antisense) [compound 530988] | 0 | 25 | 54 | 86 | 78 | 900 | 76 |  |  |  |  |  |  |  | 
531234 (e[5mC]*eA*e[5mC]*eT*eG*dT*dA*d[5mC]*dT*dA*dG*dT*dT*dT*d[5mC]*e[5mC]*eT*eA*eT*eA; antisense) [compound 531234] |  |  |  |  |  |  |  | 24 | 21 | 47 | 72 | 82 | 1400 | 86 | 
531236 (eA*eT*e[5mC]*eA*e[5mC]*dT*dG*dT*dA*d[5mC]*dT*dA*dG*dT*dT*eT*e[5mC]*e[5mC]*eT*eA; antisense) [compound 531236] |  |  |  |  |  |  |  | 4 | 28 | 59 | 85 | 93 | 800 | 87 | 
531172 (antisense eT*eT*e[5mC]*eA*eA*dG*d[5mC]*d[5mC]*dT*dG*dG*dG*d[5mC]*dA*dG*e[5mC]*eA*e[5mC]*eA*eG) [compound 531172] |  |  |  |  |  |  |  | 0 | 16 | 37 | 60 | 60 | 2100 | 71 | 
531198 (eG*eG*eG*eA*eT*dT*dT*dT*dG*d[5mC]*dT*dG*dA*dA*dG*e[5mC]*eT*eG*eG*eT; antisense) [compound 531198] |  |  |  |  |  |  |  | 0 | 35 | 62 | 76 | 60 | 800 | 73 | 
530992 (eG*eT*e[5mC]*eA*e[5mC]*dA*dT*dT*d[5mC]*dA*dA*dT*dT*d[5mC]*dT*eT*e[5mC]*eT*e[5mC]*e[5mC]; antisense) [compound 530992] | 0 | 50 | 63 | 83 | 80 | 700 | 70 |  |  |  |  |  |  |  | 
531004 (eA*eG*eA*eG*eT*dA*dA*d[5mC]*d[5mC]*dA*dG*dA*dG*d[5mC]*dT*e[5mC]*e[5mC]*e[5mC]*eT*eT; antisense) [compound 531004] | 0 | 14 | 25 | 71 | 84 | 2100 | 76 |  |  |  |  |  |  |  | 
531121 (antisense eT*eT*eG*eG*eT*d[5mC]*dT*dA*d[5mC]*dA*dG*dA*dT*dT*d[5mC]*eA*eA*eT*eG*e[5mC]) [compound 531121] |  |  |  |  |  |  |  | 0 | 13 | 47 | 69 | 79 | 1500 |  | % inhibition (human PKK mRNA [4]; Table 3, HepaRG cells, electroporation with 3,000 nM antisense oligonucleotide, approx. 24 hours, PKK mRNA by RT-PCR (RTS3454)): 72%
486847 (antisense eA*eG*eG*e[5mC]*eA*dT*dA*dT*dT*dG*dG*dT*dT*dT*dT*eT*eG*eG*eA*eA) [compound 486847] | 0 | 34 | 48 | 71 | 87 | 1100 |  |  |  |  |  |  |  |  | % inhibition (human PKK mRNA [4]; Table 2, PKK mRNA, HepaRG cells, 3,000 nM, electroporation, ~24 h): 78%
